These are literature values, as cited in patent US20050065087A1, “Pharmaceutical compositions and methods comprising combinations of 2-alkylidene-19-nor-vitamin D derivatives and a bone morphogenetic protein” (Pfizer Inc., priority 2003, published 2005).

Data set [1] concerns male weanling rats on vitamin D-deficient diet. The settings on record: chronic 7 days, 130 and/or 260 pmol/day as tested.
For data set [2] the test system is unchanged. To be noted: for bone calcium mobilization (in words): chronic 7 days, 130 and 260 pmol/day.
A further data set deals with HL-60 cells. The settings on record: method of Ostrem et al.

`C=C1/C(=C\C=C2/CCC[C@]3(C)[C@@H]([C@H](C)CCCC(C)(C)O)CC[C@@H]23)C[C@@H](O)C[C@@H]1O` [1,25-(OH)2D3, 1,25-dihydroxyvitamin D3, reference compound]: the “intestinal calcium transport (in words)” value in data set [1] is “expected elevation”. Besides, the “serum calcium value (text sentence)” value in data set [2] ('twice the dose ... at the 130 pmol dose' as printed, 7 days) was 13.8 mg/100 ml.

As to `C=C1[C@H](O)CC(=C/C=C2\CCC[C@]3(C)[C@@H]([C@H](C)CCCC(C)(C)O)CC[C@@H]23)C[C@H]1O` [2-Methylene-19-Nor-1,25-(OH)2D3, 1α,25-dihydroxy-2-methylene-19-nor-vitamin D3], the “intestinal calcium transport (in words)” value in data set [1] is listed as “no intestinal calcium transport activity”. The “bone calcium mobilization (in words)” value in data set [2] is on record as “extremely strong bone calcium mobilization”. Moreover, the “inducing differentiation of HL-60 cells to the monocyte (in words)” value in the data set with HL-60 cells was “activity similar to 1,25-(OH)2D3”.

For `C=C1[C@H](O)CC(=C/C=C2\CCC[C@]3(C)[C@@H]([C@@H](C)CCCC(C)(C)O)CC[C@@H]23)C[C@H]1O` [2-Methylene-19-Nor-20S-1,25-(OH)2D3, (20S)-1α,25-dihydroxy-2-methylene-19-nor-vitamin D3], in data set [1], the “intestinal calcium transport (in words)” value is “no significant change”. Further, the “bone calcium mobilization activity relative to the native hormone, 'possible' upper estimate” value in data set [2] (130 pmol/day, chronic mode 7 days) is given as 100-1,000 times. Moreover, in data set [2], the “bone calcium mobilization (in words)” value is “most potent compound tested”. Moreover, the “bone calcium mobilization activity relative to 1,25-(OH)2D3 (native hormone)” value in data set [2] (chronic mode 7 days, estimate in the text) is listed as “at least 10 times”. The “inducing differentiation of HL-60 cells to the monocyte (in words)” value in the data set on HL-60 cells was “extremely potent”.
